From US9540343B2 (Gilead Sciences, Inc., priority 2011, dated 2017)

Assays:
HIV-IIIb = assay: Test A: Antiviral assay in MT4 cells; assay type: cell-based, HIV-1; details: Human immunodeficiency virus 1, IIIB, MT4, 120 h, read-out: % inhibition at 2 μM, percent inhibition of virus-induced cell killing, from dose response curve at 2 uM drug; MT-4 cells infected with HIV-IIIb, 5 days, CellTiter-Glo
in vitro = details: human, uninfected MT-4 cells, CC50 (nM), same protocol as Test A, CellTiter-Glo
Description: For the antiviral assay, 40 μL of 1× test concentration of 3-fold serially diluted compound in culture medium with 10% FBS was added to each well of a 384-well plate (10 concentrations) in quadruplicate. MT-4 cells were next mixed with HIV-IIIb at an m.o.i of 0.003 for 1 hour, after which time 35 μL of virus/cell mixture (2000 cells) was immediately added to each well containing 40 μL of diluted compound. The plates were then incubated at 37° C. for 5 days. After 5 days of incubation, 25 μl of 2× concentrated CellTiter-Glo™ Reagent (catalog #G7571, Promega Biosciences, Inc., Madison, Wis.) was added to each well containing MT-4 cells. Cell lysis was carried out by incubating at room temperature for 10 min and then chemiluminescence was read.
Test B: Cytotoxicity Assay
Compound cytotoxicity and the corresponding CC50 values was determined using the same protocol as described in the antiviral assay (Test A) except that uninfected cells were used.

Compound `CC(=O)c1cn(CC(=O)N[C@@H](Cc2cc(F)cc(F)c2)c2ncccc2-c2ccc(F)c(C(N)=O)c2)nc1C(F)(F)F` [Example 389B, (S)-5-(2-(1-(2-(4-acetyl-3-(trifluoromethyl)-1H-pyrazol-1-yl)acetamido)-2-(3,5-difluorophenyl)ethyl)pyridin-3-yl)-2-fluorobenzamide] has an inhibition at 2 µM (HIV-IIIb) of 2% and a CC50 at 5 days (in vitro) greater than 53200 nM.

With `NC(=O)c1cc(-c2cccnc2[C@H](Cc2cc(F)cc(F)c2)NC(=O)Cn2nc(C(F)(F)F)c3c2CCNC3)ccc1F` [Example 303, (S)-5-(2-(2-(3,5-difluorophenyl)-1-(2-(3-(trifluoromethyl)-4,5,6,7-tetrahydro-1H-pyrazolo[4,3-c]pyridin-1-yl)acetamido)ethyl)pyridin-3-yl)-2-fluorobenzamide] the inhibition at 2 µM (HIV-IIIb) was 14% and the CC50 at 5 days (in vitro) was 35500 nM.

In the case of `O=C(Cn1nc(C(F)F)cc1C(F)F)N[C@@H](Cc1cc(F)cc(F)c1)c1ncccc1-c1ccc(S(=O)(=O)N2CCOCC2)cc1` [Example 539, (S)-2-(3,5-bis(difluoromethyl)-1H-pyrazol-1-yl)-N-(2-(3,5-difluorophenyl)-1-(3-(4-(morpholinosulfonyl)phenyl)pyridin-2-yl)ethyl)acetamide], the inhibition at 2 µM (HIV-IIIb) is reported as 10% and the CC50 at 5 days (in vitro) is reported as 20800 nM.

For `Cc1cc(-c2cccnc2[C@H](Cc2cc(F)cc(F)c2)NC(=O)Cn2nc(C(F)(F)F)c3c2CCCC3)cnc1F` [Example 89, (S)—N-(2-(3,5-difluorophenyl)-1-(6′-fluoro-5′-methyl-3,3′-bipyridin-2-yl)ethyl)-2-(3-(trifluoromethyl)-4,5,6,7-tetrahydro-1H-indazol-1-yl)acetamide], the inhibition at 2 µM (HIV-IIIb) was 73% and the CC50 at 5 days (in vitro) was 10700 nM.

Work on `NC(=O)c1cccc(-c2cccnc2[C@H](Cc2cc(F)cc(F)c2)NC(=O)Cn2c(C(F)F)nc3ccccc32)c1` [Example 358, (S)-3-(2-(1-(2-(2-(difluoromethyl)-1H-benzo[d]imidazol-1-yl)acetamido)-2-(3,5-difluorophenyl)ethyl)pyridin-3-yl)benzamide] yielded an inhibition at 2 µM (HIV-IIIb) of 20% and a CC50 at 5 days (in vitro) of 47400 nM.

Work on `N#Cc1cc(-c2cccnc2[C@H](Cc2cc(F)cc(F)c2)NC(=O)Cc2c[nH]c3ccc(F)cc23)ccn1` [Example 377, (S)—N-(1-(2′-cyano-3,4′-bipyridin-2-yl)-2-(3,5-difluorophenyl)ethyl)-2-(5-fluoro-1H-indol-3-yl)acetamide] yielded an inhibition at 2 µM (HIV-IIIb) of 22% and a CC50 at 5 days (in vitro) of 18600 nM.

For `CC(C)(C)OC(=O)NCc1ccc2[nH]cc(CC(=O)N[C@@H](Cc3cc(F)cc(F)c3)c3ncccc3-c3cccc(C(N)=O)c3)c2c1` [Example 529, (S)-tert-butyl (3-(2-(1-(3-(3-carbamoylphenyl)pyridin-2-yl)-2-(3,5-difluorophenyl)ethylamino)-2-oxoethyl)-1H-indol-5-yl)methylcarbamate], the inhibition at 2 µM (HIV-IIIb) was 53% and the CC50 at 5 days (in vitro) was 13000 nM.

`NC(=O)c1cc(-c2ccc[n+]([O-])c2[C@H](Cc2cc(F)cc(F)c2)NC(=O)Cn2nc(C(F)(F)F)c3c2CCS(=O)(=O)C3)ccc1F` [Example 197, (S)-3-(3-carbamoyl-4-fluorophenyl)-2-(2-(3,5-difluorophenyl)-1-(2-(5,5-dioxido-3-(trifluoromethyl)-6,7-dihydrothiopyrano[4,3-c]pyrazol-1(4H)-yl)acetamido)ethyl)pyridine-1-oxide] gave an inhibition at 2 µM (HIV-IIIb) of 0% and a CC50 at 5 days (in vitro) greater than 53200 nM.

In the case of `NC(=O)c1cc(-c2cccnc2[C@H](Cc2cc(F)cc(F)c2)NC(=O)Cn2nc(C(F)(F)F)c3c2C2CC2C3)ccc1F` (stereo partly drawn) [Example 169E, 5-(2-((1S)-2-(3,5-difluorophenyl)-1-(2-(3-(trifluoromethyl)-4,4-a,5,5a-tetrahydro-1H-cyclopropa[4,5]cyclopenta[1,2-c]pyrazol-1-yl)acetamido)ethyl)pyridin-3-yl)-2-fluorobenzamide], the inhibition at 2 µM (HIV-IIIb) is reported as 94%.
